Each structure is given as a SMILES string. Structures can show the parent of a compound that is named as a salt.

The assay concerns the target T1, BRD4 BD1 (Homo sapiens, UniProt O60885, Y390A).
T1 construct: BRD4 (1-477) (Y97A) and (Y390A); made in house; host or cells: E. coli (pET15b vector)
Briefly: TR-FRET binding assay, BRD4 BD1 (mutant protein). To be noted: BRD4 (1-477) mutant, 10 nM protein, read-out: pIC50 in the BRD4 BD1 assay (converted). The protocol:
Time Resolved Fluorescence Resonance Energy Transfer (TR-FRET) Assay
Binding was assessed using a time resolved fluorescent resonance energy transfer binding assay. This utilises a 6 His purification tag at the N-terminal of the proteins as an epitope for an anti-6 His antibody labeled with Europium chelate (PerkinElmer AD0111) allowing binding of the Europium to the proteins which acts as the donor fluorophore. A small molecule, high affinity binder of the bromodomains BRD2, BRD3, BRD4 and BRDT has been labeled with Alexa Fluor647 (Reference Compound X) and this acts as the acceptor in the FRET pair.
Assay Principle: In the absence of a competing compound, excitation of the Europium causes the donor to emit at λ618 nm which excites the Alexa labelled bromodomain binding compound leading to an increased energy transfer that is measurable at λ647 […]. In the presence of a sufficient concentration of a compound that can bind these proteins, the interaction is disrupted leading to a quantifiable drop in fluorescent resonance energy transfer.
The binding of the compounds of formula (I) to Bromodomains BRD2, BRD3, BRD4 and BRDT was assessed using mutated proteins to detect differential binding to either Binding Domain 1 (BD1) or Binding Domain 2 (BD2) on the bromodomain. These single residue mutations in the acetyl lysine binding pocket greatly lower the affinity of the fluoroligand (Reference Compound X) for the mutated domain (>1000 fold selective for the non-mutated domain). Therefore in the final assay conditions, binding of the fluoroligand to the mutated domain cannot be detected and subsequently the assay is suitable to determine the binding of compounds to the single non-mutated bromodomain.
Protein production: Recombinant Human Bromodomains [(BRD2 (1-473) (Y113A) and (Y386A), BRD3 (1-435) (Y73A) and (Y348A) BRD4 (1-477) (Y97A) and (Y390A) and BRDT (1-397) (Y66A) and (Y309A)] were expressed in E. coli cells (in pET15b vector for BRD2/3/4 and in pET28a vector for BRDT) with a 6-His tag at the N-terminal. The His-tagged Bromodomain pellet was resuspended in 50 mM HEPES (pH7.5), 300 mM NaCl, 10 mM imidazole & 1 μl/mL protease inhibitor cocktail and extracted from the E. coli cells using sonication and purified using a nickel sepharose high performance column, the proteins were washed and then eluted with a linear gradient of 0-500 mM imidazole with buffer 50 mM HEPES (pH7.5), 150 mM NaCl, 500 mM imidazole, over 20 column volumes. Final purification was completed by Superdex 200 prep grade size exclusion column. Purified protein was stored at −80° C. in 20 mM HEPES pH 7.5 and 100 mM NaCl. Protein identity was confirmed by peptide mass fingerprinting and predicted molecular weight confirmed by mass spectrometry.
Protocol for Bromodomain BRD2, 3, 4 and T, BD1^+BD2 mutant assays: All assay components were dissolved in buffer composition of 50 mM HEPES pH7.4, 50 mM NaCl, 5% Glycerol, 1 mM DTT and 1 mM CHAPS. The final concentration of bromodomain proteins were 10 nM and the Alexa Fluor647 ligand was at Kd. These components were premixed and 5 μl of this reaction mixture was added to all wells containing 50 nl of various concentrations of test compound or DMSO vehicle (0.5% DMSO final) in Greiner 384 well black low volume microtitre plates and incubated in dark for 30 minutes at room temperature. 5 μl of detection mixture containing 1.5 nM final concentration anti-6His Europium chelate was added to all wells and a further dark incubation of at least 30 minutes was performed. Plates were then read on the Envision platereader, (λex=317 nm, donor λem=615 nm; acceptor λem=665 nm; Dichroic LANCE dual). Time resolved fluorescent intensity measurements were made at both emission wavelengths and the ratio of acceptor/donor was calculated and used for data analysis. All data was normalized to the mean of 16 high (inhibitor control—Example 11 of WO 2011/054846A1) and 16 low (DMSO) control wells on each plate. […]
(TR-FRET usually uses a lanthanide donor and a delayed reading to cut background.)
For `CC(c1cc2c(=O)n(C)cc(-c3ccnc(OCC4CCOCC4)c3)c2o1)N1CCN(S(C)(=O)=O)CC1` (single isomer, unassigned) [Example 21a, 5-methyl-2-(1-(4-(methylsulfonyl)piperazin-1-yl)ethyl)-7-(2-((tetrahydro-2H-pyran-4-yl)methoxy)pyridin-4-yl)furo[3,2-c]pyridin-4(5H)-one], the IC50 is no more than 100 nM.
The result for `COc1ccc(-c2cn(C)c(=O)c3cc(CN4CCN(S(C)(=O)=O)CC4)oc23)cc1OC` [Example 1, 7-[3,4-bis(methyloxy)phenyl]-5-methyl-2-{[4-(methylsulfonyl)-1-piperazinyl]methyl}furo[3,2-c]pyridin-4(5H)-one] reads no more than 100 nM.
For `CC(=O)Nc1cc(-c2cn(C)c(=O)c3cc(CN4CCN(S(C)(=O)=O)C[C@H]4C)oc23)ccn1` [Example 2, (R)—N-(4-(5-methyl-2-((2-methyl-4-(methylsulfonyl)piperazin-1-yl)methyl)-4-oxo-4,5-dihydrofuro[3,2-c]pyridin-7-yl)pyridin-2-yl)acetamide], the IC50 was no more than 100 nM.
To `Cn1cc(-c2cccc(OCc3ccccc3)c2)c2oc(CN3CCN(S(C)(=O)=O)CC3)cc2c1=O` [Example 3, 7-(3-(benzyloxy)phenyl)-5-methyl-2-((4-(methylsulfonyl)piperazin-1-yl)methyl)furo[3,2-c]pyridin-4(5H)-one] belongs no more than 100 nM; to `Cn1cc(-c2cccc(NCc3ccccc3)c2)c2oc(CN3CCN(S(C)(=O)=O)CC3)cc2c1=O` [Example 4, 7-(3-(benzylamino)phenyl)-5-methyl-2-((4-(methylsulfonyl)piperazin-1-yl)methyl)furo[3,2-c]pyridin-4(5H)-one], no more than 100 nM.
To `Cn1cc(-c2ccnc(OCC3CCOCC3)c2)c2oc(CN3CCN(S(C)(=O)=O)CC3)cc2c1=O` [Example 7, 5-methyl-2-((4-(methylsulfonyl)piperazin-1-yl)methyl)-7-(2-((tetrahydro-2H-pyran-4-yl)methoxy)pyridin-4-yl)furo[3,2-c]pyridin-4(5H)-one] belongs no more than 100 nM; to `COc1ccc(-c2cn(C)c(=O)c3cc(CN4CCN(S(C)(=O)=O)C[C@H]4C)oc23)cc1OC` [Example 10, (R)-7-(3,4-dimethoxyphenyl)-5-methyl-2-((2-methyl-4-(methylsulfonyl)piperazin-1-yl)methyl)furo[3,2-c]pyridin-4(5H)-one], no more than 100 nM; to `CC(Oc1cncc(-c2cn(C)c(=O)c3cc(CN4CCN(S(C)(=O)=O)CC4)oc23)c1)c1ccccc1` (stereo not drawn) [Example 12, 5-methyl-2-((4-(methylsulfonyl)piperazin-1-yl)methyl)-7-(5-(1-phenylethoxy)pyridin-3-yl)furo[3,2-c]pyridin-4(5H)-one], no more than 100 nM.
The result for `CC(Nc1cc(-c2cn(C)c(=O)c3cc(CN4CCN(S(C)(=O)=O)CC4)oc23)ccn1)c1ccccc1` (stereo not drawn) [Example 14, 5-methyl-2-((4-(methylsulfonyl)piperazin-1-yl)methyl)-7-(2-((1-phenylethyl)amino)pyridin-4-yl)furo[3,2-c]pyridin-4(5H)-one] reads no more than 100 nM; that for `CC(Nc1cccc(-c2cn(C)c(=O)c3cc(CN4CCN(S(C)(=O)=O)CC4)oc23)c1)c1ccccc1` (stereo not drawn) [Example 15, 5-methyl-2-((4-(methylsulfonyl)piperazin-1-yl)methyl)-7-(3-((1-phenylethyl)amino)phenyl)furo[3,2-c]pyridin-4(5H)-one], no more than 100 nM.
On to `CC(c1cc2c(=O)n(C)cc(-c3ccnc(OCC4CCOCC4)c3)c2o1)N1CCN(S(C)(=O)=O)CC1` (stereo not drawn) [Example 21, 5-methyl-2-(1-(4-(methylsulfonyl)piperazin-1-yl)ethyl)-7-(2-((tetrahydro-2H-pyran-4-yl)methoxy)pyridin-4-yl)furo[3,2-c]pyridin-4(5H)-one formate], for which the IC50 was no more than 100 nM.
To `C[C@@H]1CN(S(C)(=O)=O)CCN1Cc1cc2c(=O)n(C)cc(-c3ccnc(OCC4CC4)c3)c2o1` [Example 23, (R)-7-(2-(cyclopropylmethoxy)pyridin-4-yl)-5-methyl-2-((2-methyl-4-(methylsulfonyl)piperazin-1-yl)methyl)furo[3,2-c]pyridin-4(5H)-one] belongs no more than 100 nM; to `C[C@@H]1CN(S(C)(=O)=O)CCN1Cc1cc2c(=O)n(C)cc(-c3ccnc(NC(=O)C4CC4)c3)c2o1` [Example 24, (R)—N-(4-(5-methyl-2-((2-methyl-4-(methylsulfonyl)piperazin-1-yl)methyl)-4-oxo-4,5-dihydrofuro[3,2-c]pyridin-7-yl)pyridin-2-yl)cyclopropanecarboxamide], no more than 100 nM.
Take `CCC(=O)Nc1cc(-c2cn(C)c(=O)c3cc(CN4CCN(S(C)(=O)=O)C[C@H]4C)oc23)ccn1` [Example 25, (R)—N-(4-(5-methyl-2-((2-methyl-4-(methylsulfonyl)piperazin-1-yl)methyl)-4-oxo-4,5-dihydrofuro[3,2-c]pyridin-7-yl)pyridin-2-yl)propionamide]: the IC50 is no more than 100 nM.
The result for `COCCOc1cc(-c2cn(C)c(=O)c3cc(CN4CCN(S(C)(=O)=O)C[C@H]4C)oc23)ccn1` [Example 26, (R)-7-(2-(2-methoxyethoxy)pyridin-4-yl)-5-methyl-2-((2-methyl-4-(methylsulfonyl)piperazin-1-yl)methyl)furo[3,2-c]pyridin-4(5H)-one] reads no more than 100 nM.
To `C[C@@H]1CN(S(C)(=O)=O)CCN1Cc1cc2c(=O)n(C)cc(-c3ccnc(OCCN4CCCC4)c3)c2o1` [Example 27, (R)-5-methyl-2-((2-methyl-4-(methylsulfonyl)piperazin-1-yl)methyl)-7-(2-(2-(pyrrolidin-1-yl)ethoxy)pyridin-4-yl)furo[3,2-c]pyridin-4(5H)-one] belongs no more than 100 nM; to `CC(=O)N(C)c1cc(-c2cn(C)c(=O)c3cc(CN4CCN(S(C)(=O)=O)C[C@H]4C)oc23)ccn1` [Example 30, (R)—N-methyl-N-(4-(5-methyl-2-((2-methyl-4-(methylsulfonyl)piperazin-1-yl)methyl)-4-oxo-4,5-dihydrofuro[3,2-c]pyridin-7-yl)pyridin-2-yl)acetamide], no more than 100 nM.
The result for `Cn1cc(-c2ccncc2OCC2CC2)c2oc(CN3CCN(S(C)(=O)=O)CC3)cc2c1=O` [Example 31, 7-(3-(cyclopropylmethoxy)pyridin-4-yl)-5-methyl-2-((4-(methylsulfonyl)piperazin-1-yl)methyl)furo[3,2-c]pyridin-4(5H)-one] reads no more than 100 nM; that for `C[C@@H]1CN(S(C)(=O)=O)CCN1Cc1cc2c(=O)n(C)cc(-c3ccncc3OCC3CC3)c2o1` [Example 32, (R)-7-(3-(cyclopropylmethoxy)pyridin-4-yl)-5-methyl-2-((2-methyl-4-(methylsulfonyl)piperazin-1-yl)methyl)furo[3,2-c]pyridin-4(5H)-one], no more than 10 nM; that for `Cn1cc(-c2ccnc(NCc3ccccn3)c2)c2oc(CN3CCCNCC3)cc2c1=O` [Example 34, 2-((1,4-diazepan-1-yl)methyl)-5-methyl-7-(2-((pyridin-2-ylmethyl)amino)pyridine-4-yl)furo[3,2-c]pyridin-4(5H)-one hydrochloride], no more than 100 nM.
For the compound `C[C@@H]1CN(S(C)(=O)=O)CCN1Cc1cc2c(=O)n(C)cc(-c3ccnc(OCCN4CCCC4=O)c3)c2o1` [Example 35, (R)-5-methyl-2-((2-methyl-4-(methylsulfonyl)piperazin-1-yl)methyl)-7-(2-(2-(2-oxopyrrolidin-1-yl)ethoxy)pyridin-4-yl)furo[3,2-c]pyridin-4(5H)-one], the IC50 was no more than 10 nM.

Values taken from patent US9670221B2, “Furopyridines as bromodomain inhibitors” (GlaxoSmithKline Intellectual Property (No.2) Limited, priority 2013, dated 2017).
